The target in experiment [1] is T1, human E3 ligase component cereblon (CRBN) (Homo sapiens, UniProt Q96SW2).
T1 construct: host or cells: HEK293T
Put plainly: Cereblon (CRBN) target engagement, NanoBRET TE Intracellular E3 Ligase Assay in transfected HEK-293T cells. As to conditions: read-out: CRBN Binding EC50. How it is done: HEK293T cells were harvested ca. 75% confluent with trypsin and plated (500,000 cells/well) in a 6-well tissue culture plate in 2 mL of Dulbecco's Modified Eagle Medium (DMEM)^+10% Fetal Bovine Serum (FBS) and incubated overnight at 37° C.
The NanoLuc-CRBN fusion vector (Nluc-CRBN; Promega) contains the coding region of human E3 ligase component cereblon (CRBN) fused to the C-terminus of the NanoLuc luciferase coding region. A mixture of 10 ng Nluc-CRBN and 990 ng DDB1 Expression Vector (Promega) was added to 125 μL Opti-Minimum Essential Medium (Opti-MEM™; Thermo Fisher) along with […] P3000 reagent (Thermo Fisher) in a 1.5 mL epppendorf tube. This solution was added to Lipofectamine 3000 transfection reagent (5 μL; Thermo Fisher) in Opti-MEM (125 μL), mixed well, and incubated for 15 minutes at room temperature. The transfection mixture was added dropwise to cells and incubated overnight at 37° C., 5% CO2. Following transfection, cells were washed once with PBS, and trypsin (250 μL) was added and incubated 30-45 see to dislodge cells. Complete media (2 mL) was added to resuspend cells to form a single cell suspension. Cells were centrifuged at 320×g for 5 min at room temperature, the supernatant was removed, and the cell pellet resuspended in Opti-MEM (3 mL; wash step repeated ×2). After final resuspension in 5 mL Opti-MEM, cells were counted and resuspended at 200,000 cells/mL in Opti-MEM.
Cereblon target engagement was monitored by Bioluminescence Resonance Energy Transfer (BRET) in transfected HEK-293T cells using the NanoBRET TE Intracellular E3 Ligase Assay (Promega). Briefly, 384-well plates (white opaque plates, Corning 3574, low binding surface) were seeded with transfected HEK-293T cells (38 μL/well). 2 μL of 10 μM CRBN tracer (diluted 1:5 in Tracer Dilution Buffer) was added to each well. Plates were centrifuged at 320×g for 1 min at room temperature. Test compounds were added in a 11-point dilution series (typically 10 μM to 100 pM) using a TECAN D300e Digital Dispenser. Plates were shaken for 2 minutes on a microplate shaker to mix compounds. Plates were centrifuged at 320×g for 1 min at room temperature, and subsequently incubated for 2 hours at 37° C.
After incubation, plates were allowed to cool to room temperature for 15 minutes. 20 μL of 3× Complete NanoBRET™ Nano-Glo® Substrate plus Inhibitor Solution (Promega, 1:166 Substrate and 1:500 dilution of Extracellular NanoLuc® Inhibitor diluted in Opti-MEM) were added to each well. Plates were incubated with shaking at room temperature for 3 minutes covered with foil. Plates were read on a CLARIOstar microplate reader (BMG LabTech), measuring at 450 nm (donor emission) and 610 nm (acceptor emission). The IC50 values were determined by regression to best fit four-parameter logistic curves using GraphPad Prism.
A general note: Bioluminescence resonance energy transfer reports proximity on the nanometre scale.

Experiment [2] concerns the target T2, IKZF2 (Helios) (Homo sapiens, UniProt Q96SW2+Q9UKS7).
T2 construct: Leu-Asp junction (codons ctcgac before the linker); mScarlet (behind P2A) (C, cleaved yes); expressed in transfected cells
The experiment in a line: IKZF2 reporter degradation assay (HEK 293T IKZF2-mNeonGreen reporter cell line). As to conditions: @ 1 μM, HEK 293T IKZF2-mNeonGreen reporter, 24 hours incubation; for inhibition at 1 µM: HEK-293T, 24 h. The format is cell-based. An excerpt:
(§1) Polycistronic plasmids were constructed for the mammalian expression of fluorescent reporter fusions of human transcription factors IKZF1 (Ikaros), IKZF2 (Helios), and IKZF3 (Aiolos). The respective protein sequences had their C-terminal end joined to a GGGGS linker repeated three times followed by mNeonGreen, P2A sequence, and mScarlet. The DNA sequences of the open reading frames are as follows:
(§2) IKZF1, IKZF2, and IKZF3 constructs were cloned into the UCOE Hygromycin expression vectors (Millipore Sigma). Reporter constructs were transfected using cationic lipid reagents into adherent HEK 293T cells and stable integrants were selected by treatment with 200 μg/mL hygromycin B. Clonal populations were obtained from the population of stable integrants either by limiting dilution or fluorescence activated cell sorting.
(§3) The clonal stable cell lines were maintained under constant 200 μg/mL hygromycin B selection while being passaged for use in the degradation assays. […] The fluorescence intensity of the IKZF1/2/3-mNeonGreen (FITC channel) and mScarlet (PE channel) reporters were routinely analyzed by flow cytometry to confirm consistent expression levels between experiments.
(§4) The IKZF1/IKZF2/IKZF3 degradation assays were carried out by harvesting the HEK 293T reporter cell lines and resuspending the cells in media formulated for reduced background fluorescence (FluoroBrite; Thermo Fisher). The respective cell lines were seeded at a density of 4000 cells/well into black-walled 384-well optical grade assay tissue culture plates. The cells were incubated overnight at 37° C. to allow for attachment to the assay plate. Dilutions of the compounds were prepared in DMSO from 10 mM compound stocks. The assay plates were treated with appropriate concentrations of the compounds by dispensing the DMSO dilutions in quadruplicate wells with an upper limit of 0.5% final DMSO.
(§5) After 24 hours incubation with the compounds, the assay plates were imaged on an ImageXpress Pico microscopy system (cells maintained at 37° C. during imaging) to obtain the fluorescent readouts. The assay plates were imaged in the FITC and Tetramethylrhodamine (TRITC) channels to obtain the mNeonGreen fluorescence intensity (reporter degradation data) and mScarlet fluorescence intensity (for cell segmentation). 293T-IKZF1 and 293T-IKZF3 reporter cell lines were imaged with exposures of 500 milliseconds (ms) for both FITC and TRITC channels, while the 293T-IKZF2 reporter cell line was imaged with exposures of 1000 ms for FITC and 1250 ms for TRITC. The resulting data was analyzed with Cell Reporter Xpress software using the 2-channel cell scoring analysis with a “percent positive” readout. The TRITC channel was selected for the “nuclei” segmentation with a threshold of 20 while the FITC channel was selected for the “Marker 1” segmentation and a threshold of 100 for the IKZF1 and IKZF3 reporter lines. […] The minimum segmentation width was set to 6 micrometers and the maximum segmentation width was set to 15 micrometers for all cell lines. The DC50 calculations were determined by regression to best fit four-parameter logistic curves using GraphPad Prism.

For experiment [3], the target named is T3, IKZF2 (Helios) (Homo sapiens, UniProt Q9UKS7).
T3 construct: Leu-Asp junction (codons ctcgac before the linker); mScarlet (behind P2A) (C, cleaved yes); expressed in transfected cells
The description is as above. The format is cell-based. As to conditions: HEK 293T IKZF2-mNeonGreen reporter, 24 hours incubation.
Excerpt: as §1, §2, §3, §4, §5

Experiment [4] has as its target T4, IKZF3 (Aiolos) (Homo sapiens, UniProt Q9UKT9).
T4 construct: Leu-Asp junction (codons ctcgac before the linker); mScarlet (behind P2A) (C, cleaved yes); expressed in transfected cells
The experiment in a line: IKZF3 reporter degradation assay (HEK 293T IKZF3-mNeonGreen reporter cell line). The format is cell-based. As to conditions: HEK 293T IKZF3-mNeonGreen reporter, 24 hours incubation.
Excerpt: as §1, §2, §3, §4, §5

Where only a bound is given, the exact number is not on record here.

T1 sequence (Q96SW2 whole entry): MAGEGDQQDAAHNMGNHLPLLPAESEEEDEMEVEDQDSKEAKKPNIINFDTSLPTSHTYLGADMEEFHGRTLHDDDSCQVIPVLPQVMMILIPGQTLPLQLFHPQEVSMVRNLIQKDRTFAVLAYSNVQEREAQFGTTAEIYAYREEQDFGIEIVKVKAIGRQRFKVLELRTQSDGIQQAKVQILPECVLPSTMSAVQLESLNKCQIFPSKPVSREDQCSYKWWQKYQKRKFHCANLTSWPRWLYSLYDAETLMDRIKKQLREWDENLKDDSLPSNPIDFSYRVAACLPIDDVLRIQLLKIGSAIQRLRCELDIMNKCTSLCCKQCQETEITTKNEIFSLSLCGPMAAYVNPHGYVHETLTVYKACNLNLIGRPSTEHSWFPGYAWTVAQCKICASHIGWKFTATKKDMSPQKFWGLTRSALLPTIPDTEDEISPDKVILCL
T1 sequence (Q16531 whole entry partner): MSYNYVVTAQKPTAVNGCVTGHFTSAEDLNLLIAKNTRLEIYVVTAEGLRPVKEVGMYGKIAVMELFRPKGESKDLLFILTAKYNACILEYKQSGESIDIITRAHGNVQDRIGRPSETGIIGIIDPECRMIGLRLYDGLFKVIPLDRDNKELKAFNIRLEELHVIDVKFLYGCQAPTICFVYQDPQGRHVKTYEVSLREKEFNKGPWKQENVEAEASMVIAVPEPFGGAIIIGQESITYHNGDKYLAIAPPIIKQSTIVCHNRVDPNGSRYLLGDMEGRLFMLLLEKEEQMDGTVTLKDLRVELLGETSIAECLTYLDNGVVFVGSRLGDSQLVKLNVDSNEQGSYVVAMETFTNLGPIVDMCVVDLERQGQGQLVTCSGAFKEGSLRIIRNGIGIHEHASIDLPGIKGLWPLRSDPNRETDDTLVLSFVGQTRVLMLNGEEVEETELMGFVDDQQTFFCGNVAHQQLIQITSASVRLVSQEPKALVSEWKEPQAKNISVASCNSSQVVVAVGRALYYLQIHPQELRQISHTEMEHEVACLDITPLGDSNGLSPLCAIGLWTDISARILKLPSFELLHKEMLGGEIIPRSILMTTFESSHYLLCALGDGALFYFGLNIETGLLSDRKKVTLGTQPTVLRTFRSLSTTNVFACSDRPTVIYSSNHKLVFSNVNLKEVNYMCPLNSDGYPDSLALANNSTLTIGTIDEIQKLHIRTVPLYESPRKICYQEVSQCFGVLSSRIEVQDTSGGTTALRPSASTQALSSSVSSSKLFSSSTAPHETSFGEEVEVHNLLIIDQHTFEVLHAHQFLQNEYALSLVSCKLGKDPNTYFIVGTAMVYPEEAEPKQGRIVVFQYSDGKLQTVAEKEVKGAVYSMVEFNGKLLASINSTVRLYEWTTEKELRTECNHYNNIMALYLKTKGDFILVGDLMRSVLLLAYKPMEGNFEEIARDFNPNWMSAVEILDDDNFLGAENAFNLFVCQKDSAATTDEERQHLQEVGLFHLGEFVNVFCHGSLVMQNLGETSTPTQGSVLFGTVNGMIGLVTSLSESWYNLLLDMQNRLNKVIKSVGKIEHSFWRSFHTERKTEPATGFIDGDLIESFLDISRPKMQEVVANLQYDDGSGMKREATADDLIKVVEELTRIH
T4 sequence (Q96SW2 whole entry partner): as the sequence (Q96SW2 whole entry) above
T4 sequence (Q16531 whole entry partner): as the sequence (Q16531 whole entry partner) above
T4 sequence (Q9UKT9 whole entry): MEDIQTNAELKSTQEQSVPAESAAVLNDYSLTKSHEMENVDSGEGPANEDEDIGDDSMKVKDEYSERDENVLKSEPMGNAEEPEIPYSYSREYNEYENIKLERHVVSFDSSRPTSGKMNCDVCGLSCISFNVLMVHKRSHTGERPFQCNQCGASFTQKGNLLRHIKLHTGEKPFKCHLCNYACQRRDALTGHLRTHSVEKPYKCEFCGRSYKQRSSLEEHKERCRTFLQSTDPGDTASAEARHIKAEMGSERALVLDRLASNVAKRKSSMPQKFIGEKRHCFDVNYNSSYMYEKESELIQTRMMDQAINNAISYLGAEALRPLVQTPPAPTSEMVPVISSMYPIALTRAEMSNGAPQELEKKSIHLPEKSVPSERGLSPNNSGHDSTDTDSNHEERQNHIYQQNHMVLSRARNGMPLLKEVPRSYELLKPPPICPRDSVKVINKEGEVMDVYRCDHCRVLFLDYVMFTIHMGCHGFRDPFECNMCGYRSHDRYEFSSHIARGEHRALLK
T2 sequence (Q9UKS7 whole entry): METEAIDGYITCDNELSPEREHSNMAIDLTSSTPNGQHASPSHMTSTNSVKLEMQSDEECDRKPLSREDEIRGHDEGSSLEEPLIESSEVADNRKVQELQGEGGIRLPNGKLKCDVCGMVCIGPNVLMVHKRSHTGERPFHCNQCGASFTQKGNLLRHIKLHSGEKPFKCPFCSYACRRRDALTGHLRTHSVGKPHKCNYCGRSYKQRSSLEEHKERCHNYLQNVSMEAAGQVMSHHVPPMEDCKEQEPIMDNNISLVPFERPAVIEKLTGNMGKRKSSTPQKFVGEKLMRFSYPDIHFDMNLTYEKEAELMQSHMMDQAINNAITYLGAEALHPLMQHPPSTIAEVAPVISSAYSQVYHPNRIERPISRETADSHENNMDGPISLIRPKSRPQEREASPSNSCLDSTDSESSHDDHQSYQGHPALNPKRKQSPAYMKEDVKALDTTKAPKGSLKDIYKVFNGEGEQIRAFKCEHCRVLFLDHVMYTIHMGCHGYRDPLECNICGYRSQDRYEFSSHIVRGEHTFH
T2 sequence (Q96SW2 whole entry): as the sequence (Q96SW2 whole entry) above
T2 sequence (Q16531 whole entry partner): as the sequence (Q16531 whole entry partner) above
T3 sequence (Q9UKS7 whole entry): as the sequence (Q9UKS7 whole entry) above
T3 sequence (Q96SW2 whole entry, further chain): as the sequence (Q96SW2 whole entry) above
T3 sequence (Q16531 whole entry partner): as the sequence (Q16531 whole entry partner) above

As for `O=C1CCC(N2Cc3cc(O[C@H]4CCCC[C@@H]4N4CC(c5ncc(Br)cn5)C4)ccc3C2=O)C(=O)N1` (mixture of isomers) [Compound 137-B, Rac-3-(5-(((trans)-2-(3-(5-bromopyrimidin-2-yl)azetidin-1-yl)cyclohexyl)oxy)-1-oxoisoindolin-2-yl)piperidine-2,6-dione], the EC50 (commonly the concentration needed to bring the measured effect to its halfway point) in experiment [1] came to 38 nM. For the same molecule, testing at 1 µM in experiment [2] gave an inhibition of 59.3%. Besides, the 50% degradation concentration (DC50) (in general, the concentration giving 50% degradation) in experiment [3] is 49 nM; in experiment [4], greater than 30000 nM.
For `O=C1CCC(N2Cc3cc(O[C@@H]4CCCC[C@@H]4N4CC(c5ncncc5Cl)C4)ccc3C2=O)C(=O)N1` (mixture of isomers) [Compound 139-B, Rac-3-(5-(((cis)-2-(3-(5-chloropyrimidin-4-yl)azetidin-1-yl)cyclohexyl)oxy)-1-oxoisoindolin-2-yl)piperidine-2,6-dione] the same measures were 35 nM, 62.4%, 33 nM and greater than 30000 nM.
Consider `O=C1CCC(N2Cc3cc(O[C@@H]4CCCC[C@@H]4N4CC(c5ccc6ccccc6n5)C4)ccc3C2=O)C(=O)N1` (mixture of isomers) [Compound 146-B, Rac-3-(1-oxo-5-(((cis)-2-(3-(quinolin-2-yl)azetidin-1-yl)cyclohexyl)oxy)isoindolin-2-yl)piperidine-2,6-dione], for which the concentration giving a half-maximal response (EC50) in experiment [1] came to 12 nM. Further, 1 µM produced 74.9% inhibition in experiment [2]. Besides, the DC50 in experiment [3] is 7 nM; in experiment [4], greater than 30000 nM.
For `O=C1CCC(N2Cc3cc(O[C@H]4CCCC[C@@H]4N4CC(c5ccc6ccccc6n5)C4)ccc3C2=O)C(=O)N1` (mixture of isomers) [Compound 152-B, Rac-3-(1-oxo-5-(((trans)-2-(3-(quinolin-2-yl)azetidin-1-yl)cyclohexyl)oxy)isoindolin-2-yl)piperidine-2,6-dione] the same measures were 3 nM, 43.9%, 41 nM and greater than 30000 nM.
For `O=C1CCC(N2Cc3cc(O[C@@H]4CCCC[C@@H]4N4CC(c5ccncc5F)C4)ccc3C2=O)C(=O)N1` (mixture of isomers) [Compound 153-B, Rac-3-(5-(((cis)-2-(3-(3-fluoropyridin-4-yl)azetidin-1-yl)cyclohexyl)oxy)-1-oxoisoindolin-2-yl)piperidine-2,6-dione] the same measures were 32 nM, 73.4%, 16 nM and greater than 30000 nM.
For `O=C1CCC(N2Cc3cc(O[C@@H]4CCCC[C@@H]4N4CC(c5cncc(Cl)c5)C4)ccc3C2=O)C(=O)N1` (mixture of isomers) [Compound 155-B, Rac-3-(5-(((cis)-2-(3-(5-chloropyridin-3-yl)azetidin-1-yl)cyclohexyl)oxy)-1-oxoisoindolin-2-yl)piperidine-2,6-dione] the same measures were 18 nM, 75.5%, 11 nM and greater than 30000 nM.
On to `O=C1CCC(N2Cc3cc(O[C@@H]4CCCC[C@@H]4N4CC(c5cc(Cl)ccn5)C4)ccc3C2=O)C(=O)N1` (mixture of isomers) [Compound 165-B, Rac-3-(5-(((cis)-2-(3-(4-chloropyridin-2-yl)azetidin-1-yl)cyclohexyl)oxy)-1-oxoisoindolin-2-yl)piperidine-2,6-dione], for which the EC50 in experiment [1] worked out at 13 nM. The inhibition (commonly the drop in the measured response relative to a control, in per cent) at 1 µM in experiment [2] amounted to 58.6%. The DC50 in experiment [3] was 9 nM; in experiment [4], greater than 30000 nM.
In the case of `O=C1CCC(N2Cc3cc(OC4CCCCC4N4CC(C(=O)N5CCCCC5)C4)ccc3C2=O)C(=O)N1` (single isomer, unassigned) [Compound 22-A, 3-(1-oxo-5-((2-(3-(piperidine-1-carbonyl)azetidin-1-yl)cyclohexyl)oxy)isoindolin-2-yl)piperidine-2,6-dione], the EC50 in experiment [1] stood at 31 nM. In experiment [2], this molecule registered an inhibition at 1 µM of 75.9%. The values for the DC50 in experiment [3] and in experiment [4] were 11 nM and greater than 30000 nM, respectively.
For `O=C1CCC(N2Cc3cc(O[C@H]4CCCC[C@@H]4N4CC(c5ccc6ccccc6n5)C4)ccc3C2=O)C(=O)N1` (single isomer, unassigned) [Compound 89-B] the same measures were 3 nM, 86.2%, 2 nM and greater than 30000 nM.
In the case of `O=C1CCC(N2Cc3cc(O[C@H]4CCCC[C@@H]4N4CC(c5ccc6ccccc6n5)C4)ccc3C2=O)C(=O)N1` (single isomer, unassigned) [Compound 90-B], the EC50 in experiment [1] worked out at 6 nM. In addition, the “IKZF2 % Degradation @ 1 μM” value in experiment [2] was 87.1%. Moreover, the 50% degradation concentration (DC50) in experiment [3] is 1 nM; in experiment [4] it was greater than 30000 nM.
Turning to `O=C1CCC(N2Cc3cc(O[C@@H]4CCCC[C@@H]4N4CC(c5ccc6ccccc6n5)C4)ccc3C2=O)C(=O)N1` (single isomer, unassigned) [Compound 91-B], the EC50 in experiment [1] is 5 nM. Besides, the inhibition at 1 µM in experiment [2] was 47.3%. The half-maximal degradation concentration (DC50) in experiment [3] is 29 nM; in experiment [4] it was greater than 30000 nM.
As to `O=C1CCC(N2Cc3cc(O[C@H]4CCCC[C@H]4N4CC(c5ccc(Cl)cn5)C4)ccc3C2=O)C(=O)N1` (single isomer, unassigned) [Compound 98-B], the concentration giving a half-maximal response (EC50) in experiment [1] is 55 nM. In addition, in experiment [2], testing at 1 µM gave an inhibition of 41.3%. In experiment [3], this molecule had a DC50 of 111 nM.
As to `O=C1CCC(N2Cc3cc(O[C@H]4CCCC[C@@H]4N4CC(c5ccnc6[nH]ccc56)C4)ccc3C2=O)C(=O)N1` (single isomer, unassigned) [Compound 113-B], the EC50 in experiment [1] stood at 30 nM. This molecule also returned an inhibition at 1 µM in experiment [2] of 29.7%. For the same molecule, in experiment [3], the DC50 stood at 62 nM.
For `O=C1CCC(N2Cc3cc(O[C@H]4CCCC[C@H]4N4CC(c5cncc(Cl)c5)C4)ccc3C2=O)C(=O)N1` (single isomer, unassigned) [Compound 115-B] the same measures were 64 nM, 21.7% and 177 nM.
